Source: patent US10273290B2, “Hydrocarbon double-stapled stabilized HIV-1 GP41 heptad repeat domain peptides” (DANA-FARBER CANCER INSTITUTE, INC., priority 2009, dated 2019)
Bridge positions count the residues as written; N and C are the ends. Square brackets hold non-standard residues; d marks the D form. Ends that are not written are not given here. Peptide text beside a SMILES is read from it. * marks the point of attachment. FITC = O=C1OC2(c3ccc(O)cc3Oc3cc(O)ccc32)c2ccc(NC(=S)*)cc21; S5 = C=CCCC[C@](C)(N)C(=O)O; Nle = CCCC[C@H](N)C(=O)O

Columns and labels:
[1] = Circular dichroism, α-helical content; format: physicochemical
Method: The α-helicity of stapled modified polypeptides was compared to their unmodified counterparts by circular dichroism. CD spectra were obtained on an Aviv spectropolarimeter at 20° C. using the following standard measurement parameters: wavelength, 190-260 nm; step resolution, 0.5 nm; speed, 20 nm/sec; accumulations, 10; response, 1 sec; bandwidth, 1 nm; path length, 0.1 cm. The α-helical content of each peptide was calculated by dividing the mean residue ellipticity [θ]222obs, by the reported [θ]222obs for a model helical peptide (Forood, B., E. J. Feliciano, and K. P. Nambiar, PNAS, 1993. 90(3): p. 838-842; J. Martin Scholtz, Biopolymers, 1991. 31(13): p. 1463-1470; Lawless, M. K., et al., Biochemistry, 1996. 35(42): p. 13697-13708) or using, for example, the Aviv machine using CDNN software developed by Brohm in order to deduce five different secondary structure fractions (helix, parallel and antiparallel beta-sheet, beta-turn and random coil). Protein Engineering, 1992. 5(3); p. 191-195
In order to evaluate secondary structure improvements of hydrocarbon-stapled peptides, we record and analyze circular dichroism (CD) spectra on an Aviv Biomedical spectrometer (model 410), as described above. […] The CD spectra are initially plotted as wavelength versus millidegree. […] After conversion to mean residue ellipticity, percent α-helicity can be calculated using the equation, % helicity=100×[θ]222/^max[θ]222, where ^max[θ]222=−40,000×[1−(2.5/number of amino acid residues)]. We also employ the curve-fitting CDDN software that is bundled with our spectrometer to calculate the relative fractions of secondary structure including α-helix, parallel and antiparallel β-sheet, β-turn and random coil.

chymotrypsin = target: T1, chymotrypsin (Bos taurus, UniProt P00766); assay: Protease resistance assay, chymotrypsin (LC/MS); format: in vitro ADME; settings: pH 7.4, 0.5 chymotrypsin, peptide 25 μM
T1 construct: purchased Sigma
Method: The DAD signal was set to 280 nm with an 8 nm bandwidth and MSD set to scan mode with one channel at (M+2H)/2, +1 mass units and the other at (M+3H)/3, +1 mass units. Integration of each MSD signal yielded areas under the curve of >10^8 counts. Reaction samples were composed of 5 μL peptide in DMSO (1 mM stock) and 195 μL of buffer consisting of 50 mM phosphate buffer pH 7.4 containing 2 mM CaCl2. Upon injection of the 0 hr time point sample, 2 μL of 50 ng/μL chymotrypsin (Sigma) was added and the amount of intact peptide quantitated by serial injection over time. An internal control of acetylated tryptophan carboxamide at a concentration of 100 μM was used to normalize each MSD data point. A plot of MSD area versus time yielded an exponential decay curve and half-lives were determined by nonlinear regression analysis using Prism software (GraphPad).

Chymotrypsin, pH 7 = assay: Chymotrypsin, pH 7
Description: Table printed on a drawing sheet, FIG. 17D
Title: Chymotrypsin, pH 7
First reader's note: The table also serves as the legend of the plot below it (fraction intact over time); the plot symbols before the compound names are left out.

[2] = test system: doubly-mutant HR1 peptides V38A/N42T and V38E/N42S; assay: Native PAGE complex assembly with mutant HR1 peptides; format: binding, HIV-1; settings: for higher-order complex formation with doubly-mutant HR1 peptides: FITC-labeled peptides, native PAGE
Description: We first performed a native PAGE-based assay designed to monitor the capacity of FITC-HR2 and mutant HR1 peptides to interact to form a stable higher-order complex (He, Y., et al. PNAS (2008)).

pepsin = assay: Protease resistance assay, pepsin at pH 2; settings: pepsin at 0.5 ng/μL, peptide 25 μM, acidic conditions
Method: The DAD signal was set to 280 nm with an 8 nm bandwidth and MSD set to scan mode with one channel at (M+2H)/2, +1 mass units and the other at (M+3H)/3, +1 mass units. […] Reaction samples were composed of 5 μL peptide in DMSO (1 mM stock) and 195 μL of buffer consisting of 50 mM phosphate buffer pH 7.4 containing 2 mM CaCl2. Upon injection of the 0 hr time point sample, 2 μL of 50 ng/μL chymotrypsin (Sigma) was added and the amount of intact peptide quantitated by serial injection over time. An internal control of acetylated tryptophan carboxamide at a concentration of 100 μM was used to normalize each MSD data point. A plot of MSD area versus time yielded an exponential decay curve and half-lives were determined by nonlinear regression analysis using Prism software (GraphPad). The assay was also performed using trypsin and pepsin in their appropriate buffer conditions.

Molecule: CCCC[C@H](NC(C)=O)C(=O)N[C@H](C(=O)N[C@@H](Cc1c[nH]c2ccccc12)C(=O)N[C@@H](CCCC)C(=O)N[C@@H](CCC(=O)O)C(=O)N[C@@H](Cc1c[nH]c2ccccc12)C(=O)N[C@@H](CC(=O)O)C(=O)N[C@@H](CCCNC(=N)N)C(=O)N[C@@H](CCC(=O)O)C(=O)N[C@H](C(=O)N[C@@]1(C)CCCC=CCCC[C@@](C)(C(=O)N[C@@H](CC(C)C)C(=O)N[C@H](C(=O)N[C@@H](Cc2c[nH]cn2)C(=O)N[C@@H](CO)C(=O)N[C@@H](CC(C)C)C(=O)N[C@H](C(=O)N[C@@H](CCC(=O)O)C(=O)N[C@@H](CCC(=O)O)C(=O)N[C@@H](CO)C(=O)N[C@@H](CCC(N)=O)C(=O)N[C@@H](CC(N)=O)C(=O)N[C@@H](CCC(N)=O)C(=O)N[C@@]2(C)CCCC=CCCC[C@@](C)(C(=O)N[C@@H](CCC(N)=O)C(=O)N[C@@H](CCC(=O)O)C(=O)N[C@@H](CC(C)C)C(=O)N[C@@H](CC(C)C)C(=O)N[C@@H](CCC(=O)O)C(N)=O)NC(=O)[C@H](CC(N)=O)NC(=O)[C@H](CCCCN)NC(=O)[C@H](CCC(=O)O)NC2=O)[C@@H](C)CC)[C@@H](C)CC)NC(=O)[C@H]([C@@H](C)O)NC(=O)[C@H](Cc2ccc(O)cc2)NC(=O)[C@H](CC(N)=O)NC1=O)[C@@H](C)CC)[C@@H](C)O [SAH-gp41(626-662)(C, F)] (Ac-[Nle]TW[Nle]EWDREI[S5]NYT[S5]LIHSLIEESQNQ[S5]EKN[S5]QELLE-NH2; staple 11-15, 28-32)
- % helicity at pH 2 [1]: 55%
- % helicity at pH 7 [1]: 41%
- Half-Life (chymotrypsin): 8.23 h

Molecule: CCCC[C@H](NC(C)=O)C(=O)N[C@H](C(=O)N[C@@H](Cc1c[nH]c2ccccc12)C(=O)N[C@@H](CCCC)C(=O)N[C@@H](CCC(=O)O)C(=O)N[C@@H](Cc1c[nH]c2ccccc12)C(=O)N[C@@H](CC(=O)O)C(=O)N[C@@H](CCCNC(=N)N)C(=O)N[C@@H](CCC(=O)O)C(=O)N[C@H](C(=O)N[C@@H](CC(N)=O)C(=O)N[C@@H](CC(N)=O)C(=O)N[C@@H](Cc1ccc(O)cc1)C(=O)N[C@H](C(=O)N[C@@]1(C)CCCC=CCCC[C@@](C)(C(=O)N[C@@H](CC(C)C)C(=O)N[C@H](C(=O)N[C@@H](CCC(=O)O)C(=O)N[C@@H](CCC(=O)O)C(=O)N[C@@H](CO)C(=O)N[C@@H](CCC(N)=O)C(=O)N[C@@H](CC(N)=O)C(=O)N[C@@H](CCC(N)=O)C(=O)N[C@@]2(C)CCCC=CCCC[C@@](C)(C(=O)N[C@@H](CCC(N)=O)C(=O)N[C@@H](CCC(=O)O)C(=O)N[C@@H](CC(C)C)C(=O)N[C@@H](CC(C)C)C(=O)N[C@@H](CCC(=O)O)C(N)=O)NC(=O)[C@H](CC(N)=O)NC(=O)[C@H](CCCCN)NC(=O)[C@H](CCC(=O)O)NC2=O)[C@@H](C)CC)NC(=O)[C@H](Cc2c[nH]cn2)NC(=O)[C@H]([C@@H](C)CC)NC(=O)[C@H](CC(C)C)NC1=O)[C@@H](C)O)[C@@H](C)CC)[C@@H](C)O [SAH-gp41(626-662)(D, F)] (Ac-[Nle]TW[Nle]EWDREINNYT[S5]LIH[S5]LIEESQNQ[S5]EKN[S5]QELLE-NH2; staple 15-19, 28-32)
- Half-Life (chymotrypsin): 3.02 h

Molecule: Enfuvirtide
- Half-Life (Chymotrypsin, pH 7): 0.2 h

Molecule: FITC-SAH-gp41(626-662)(A, F): FITC-labeled doubly stapled SAH-gp41(626-662)(A, F) ({FITC}-LTWAEWDAEINNYTSLIHSLIEESQNQAEKNAQELLE; not fully specified (bridges); also: doubly stapled, positions not given here)
- higher-order complex formation with doubly-mutant HR1 peptides [2]: formed a higher-order complex
- fold enhancement in binding activity ([2]; compared to FITC-T649v, densitometric analyses): up to 2 fold

Molecule: FITC-T649v: FITC-labeled T649v ({FITC}-LTWLEWDREINNYTSLIHSLIEESQNQQEKNEQELLE) [reference compound]
- higher-order complex formation with doubly-mutant HR1 peptides [2]: formed a higher-order complex

Molecule: FITC-labeled enfuvirtide: FITC-labeled enfuvirtide [reference compound]
- higher-order complex formation with doubly-mutant HR1 peptides [2]: no interactions

Molecule: enfuvirtide [listing 1 of 5 here]
- % helicity at pH 2 [1]: 79%
- % helicity at pH 7 [1]: 23%
- Half-life (minutes), pepsin (pepsin): 3 min
- Half-Life (Chymotrypsin, pH 7): 0.417 h

Molecule: enfuvirtide [listing 2 of 5 here]
- % helicity at pH 2 [1]: 57%
- % helicity at pH 7 [1]: 30%

Molecule: enfuvirtide [listing 3 of 5 here]
- Half-life (minutes), pepsin (pepsin): 920 min

Molecule: enfuvirtide [listing 4 of 5 here]
- % helicity at pH 2 [1]: 61%
- % helicity at pH 7 [1]: 48%
- Half-life (minutes), pepsin (pepsin): 227 min
- Half-Life (Chymotrypsin, pH 7): 1.67 h

Molecule: enfuvirtide [listing 5 of 5 here]
- % helicity at pH 2 [1]: 66%
- % helicity at pH 7 [1]: 26%

Molecule: unstapled counterpart: unstapled 20-mer truncation of T649v, residues 626-645 ([Nle]TW[Nle]EWDREINNYTSLIHSL) [reference compound]
- α-helical content ([1]; comparative CD spectra, 20-mer residues 626-645): 20%
